Results: patent US9717699B2, “Sterilized compositions of cyanoacrylate monomers and naphthoquinone 2,3-oxides” (Adhezion Biomedical, LLC, priority 2014, dated 2017)

Experiment: Miscibility/solubility of additive in cyanoacrylate monomer
Type: physicochemical
Details: activated 2-octyl cyanoacrylate composition, room temperature

Miscibility with 2-octyl cyanoacrylate | Miscibility with 2-octyl cyanoacrylate (listed as Phylloquinone oxide) | SMILES
well dissolved |  | CC1=C(C/C=C(\C)CCC[C@H](C)CCC[C@H](C)CCCC(C)C)C(=O)c2ccccc2C1=O [2-methyl-3-phytyl-1,4-naphthoquinone]
well-miscible |  | CC1=CC(=O)c2ccccc2C1=O [2-methyl-1,4-naphthoquinone]
well-miscible | well miscible | C/C(=C\CC12OC1(C)C(=O)c1ccccc1C2=O)CCCC(C)CCCC(C)CCCC(C)C (centres unmarked) [Vitamin K1 oxide, 2-methyl-3-phytyl-1,4-naphthoquinone 2,3-oxide]

SMILES | Miscibility with 2-octyl cyanoacrylate | Miscibility with 2-octyl cyanoacrylate (listed as Phylloquinone oxide)
CC(=O)Oc1cc(C)c(OC(C)=O)c2ccccc12 [1,4-diacetoxy-2-methylnaphthalene] | well soluble | 
